Biological target: T1, Recombinant human liver GK1 (GST-GK) (Homo sapiens, UniProt P35557)
T1 construct: made in house; host or cells: E. coli
T1 sequence (P35557 1-466 isoform P35557-2): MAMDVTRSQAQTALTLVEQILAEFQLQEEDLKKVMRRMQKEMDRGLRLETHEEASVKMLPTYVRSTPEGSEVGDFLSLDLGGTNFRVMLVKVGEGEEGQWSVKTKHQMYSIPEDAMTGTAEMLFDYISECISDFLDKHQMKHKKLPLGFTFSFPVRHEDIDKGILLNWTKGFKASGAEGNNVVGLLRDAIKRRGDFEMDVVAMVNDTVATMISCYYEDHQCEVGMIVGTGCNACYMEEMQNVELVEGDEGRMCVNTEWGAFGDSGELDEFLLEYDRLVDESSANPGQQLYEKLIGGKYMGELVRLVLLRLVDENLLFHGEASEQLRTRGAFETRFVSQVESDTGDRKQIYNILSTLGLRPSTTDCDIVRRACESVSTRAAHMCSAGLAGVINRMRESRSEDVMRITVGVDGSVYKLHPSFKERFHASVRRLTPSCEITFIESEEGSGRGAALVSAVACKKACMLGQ
Assay: In vitro glucokinase activity, G6PDH-coupled spectrophotometric assay
Format: biochemical
Conditions: 5 mM D-glucose, 30° C.; for SC1.5 (concentration of activator that produced a 50% increase in the activity of GK): pH 7.1
Procedure: Glucokinase In Vitro Assay Protocol: Glucokinase (GK) was assayed by coupling the production of glucose-6-phosphate to the generation of NADH with glucose-6-phosphate dehydrogenase (G6PDH, 0.75-1 kunits/mg; Boehringer Mannheim, Indianapolis, Ind.) from Leuconostoc mesenteroides as the coupling enzyme (Scheme 2).
Recombinant human liver GK1 was expressed in E. coli as a glutathione S-transferase fusion protein (GST-GK) [Liang et al, 1995] and was purified by chromatography over a glutathione-Sepharose 4B affinity column using the procedure provided by the manufacturer (Amersham Pharmacia Biotech, Piscataway, N.J.).
The assay was conducted at 30° C. in a flat bottom 96-well tissue culture plate from Costar (Cambridge, Mass.) with a final incubation volume of 120 μL. The incubation reaction contained the following: 25 mM Hepes buffer (pH 7.1), 25 mM KCl, 5 mM D-glucose, 1 mM ATP, 1.8 mM NAD, 2 mM MgCl2, 1 μM sorbitol-6-phosphate, 1 mM dithiothreitol, test drug or 10% dimethylsulfoxide, ˜7 units/ml G6PDH, and GK (see below). All organic reagents were >98% pure and were from Boehringer Mannheim with the exceptions of D-glucose and Hepes which were from Sigma Chemical Co, St Louis, Mo. Test compounds were dissolved in dimethylsulfoxide and were added to the incubation reaction minus GST-GK in a volume of 12 μL to yield a final dimethylsulfoxide concentration of 10%. This mix was pre-incubated in the temperature controlled chamber of a SPECTRAmax 250 microplate spectrophotometer (Molecular Devices Corporation, Sunnyvale, Calif.) for 10 minutes to allow temperature equilibrium and then the reaction was started by the addition of 20 μL GST-GK.
After addition of enzyme, the increase in optical density (OD) at 340 nm was monitored spectrophotometrically to determine the rate of change (OD340 per min). The GK activity (OD340/min) in control wells (10% dimethylsulfoxide minus GK activators) was compared with the activity in wells containing test GK activators, and the concentration of activator that produced a 50% increase in the activity of GK, i.e., the SC1.5, was calculated.

SC1.5 (concentration of activator that produced a 50% increase in the activity of GK) | fold induction at 30 µM | Structure (SMILES)
0.33 µM |  | O=C1C(=O)N(C(CC2CCCC2)C(=O)Nc2ccccn2)c2ccc(OC(F)(F)F)cc21 (centres unmarked) [Example 30, 3-Cyclopentyl-2-(2,3-dioxo-5-trifluoromethoxy-2,3-dihydro-indol-1-yl)-N-pyridin-2-yl-propionamide]
19.72 µM |  | CC(C)CC(C(=O)Nc1cnccn1)N1C(=O)C(=O)c2cc(OC(F)(F)F)ccc21 (centres unmarked) [Example 37, 2-(2,3-Dioxo-5-trifluoromethoxy-2,3-dihydro-indol-1-yl)-4-methyl-pentanoic acid pyrazin-2-ylamide]
2.57 µM |  | CC(C)CC(C(=O)Nc1ccccn1)N1C(=O)C(=O)c2cc(OC(F)(F)F)ccc21 (centres unmarked) [Example 38, 2-(2,3-Dioxo-5-trifluoromethoxy-2,3-dihydro-indol-1-yl)-4-methyl-pentanoic acid pyridin-2-ylamide]
5.97 µM |  | CC(C)CC(C(=O)Nc1nccs1)N1C(=O)C(=O)c2cc(OC(F)(F)F)ccc21 (centres unmarked) [Example 40, 2-(2,3-Dioxo-5-trifluoromethoxy-2,3-dihydro-indol-1-yl)-4-methyl-pentanoic acid thiazol-2-ylamide]
8.12 µM |  | CC(C)CC(C(=O)Nc1ccn(C)n1)N1C(=O)Cc2cc(OC(F)(F)F)ccc21 (centres unmarked) [Example 42, 4-Methyl-2-(2-oxo-5-trifluoromethoxy-2,3-dihydro-indol-1-yl)-pentanoic acid (1-methyl-1H-pyrazol-3-yl)-amide]
1.41 µM |  | CC(C)CC(C(=O)Nc1ccccn1)N1C(=O)Cc2cc(OC(F)(F)F)ccc21 (centres unmarked) [Example 43, 4-Methyl-2-(2-oxo-5-trifluoromethoxy-2,3-dihydro-indol-1-yl)-pentanoic acid pyridin-2-ylamide]
3.67 µM |  | CC(C)CC(C(=O)Nc1cnccn1)N1C(=O)Cc2cc(OC(F)(F)F)ccc21 (centres unmarked) [Example 44, 4-Methyl-2-(2-oxo-5-trifluoromethoxy-2,3-dihydro-indol-1-yl)-pentanoic acid pyrazin-2-ylamide]
5.48 µM |  | COc1ccc2c(c1)C(=O)C(=O)N2C(CC1CCCC1)C(=O)Nc1nccs1 (centres unmarked) [Example 48, 3-Cyclopentyl-2-(5-methoxy-2,3-dioxo-2,3-dihydro-indol-1-yl)-N-thiazol-2-yl-propionamide]
1.74 µM |  | COc1ccc2c(c1)CC(=O)N2C(CC1CCCC1)C(=O)Nc1ccccn1 (centres unmarked) [Example 49, 3-Cyclopentyl-2-(5-methoxy-2-oxo-2,3-dihydro-indol-1-yl)-N-pyridin-2-yl-propionamide]

Further lines, the molecule ahead of its results:

Structure (SMILES) | SC1.5 (concentration of activator that produced a 50% increase in the activity of GK) | fold induction at 30 µM
Cn1ccc(NC(=O)C(CC2CCCC2)N2C(=O)C(=O)c3cc(OC(F)(F)F)ccc32)n1 (centres unmarked) [Example 31, 3-Cyclopentyl-2-(2,3-dioxo-5-trifluoromethoxy-2,3-dihydro-indol-1-yl)-N-(1-methyl-1H-pyrazol-3-yl)-propionamide] | 1.65 µM | 
O=C1C(=O)N(C(CC2CCCC2)C(=O)Nc2nccs2)c2ccc(OC(F)(F)F)cc21 (centres unmarked) [Example 32, 3-Cyclopentyl-2-(2,3-dioxo-5-trifluoromethoxy-2,3-dihydro-indol-1-yl)-N-thiazol-2-yl-propionamide] | 0.76 µM | 
O=C(Nc1ccccn1)C(CC1CCCC1)N1C(=O)Cc2cc(OC(F)(F)F)ccc21 (centres unmarked) [Example 33, 3-Cyclopentyl-2-(2-oxo-5-trifluoromethoxy-2,3-dihydro-indol-1-yl)-N-pyridin-2-yl-propionamide] | 0.13 µM | 
Cn1ccc(NC(=O)C(CC2CCCC2)N2C(=O)Cc3cc(OC(F)(F)F)ccc32)n1 (centres unmarked) [Example 34, 3-Cyclopentyl-N-(1-methyl-1H-pyrazol-3-yl)-2-(2-oxo-5-trifluoromethoxy-2,3-dihydro-indol-1-yl)-propionamide] | 1.07 µM | 
O=C(Nc1nccs1)C(CC1CCCC1)N1C(=O)Cc2cc(OC(F)(F)F)ccc21 (centres unmarked) [Example 35, 3-Cyclopentyl-2-(2-oxo-5-trifluoromethoxy-2,3-dihydro-indol-1-yl)-N-thiazol-2-yl-propionamide] | 0.49 µM | 
O=C(Nc1cnccn1)C(CC1CCCC1)N1C(=O)Cc2cc(OC(F)(F)F)ccc21 (centres unmarked) [Example 36, 3-Cyclopentyl-2-(2-oxo-5-trifluoromethoxy-2,3-dihydro-indol-1-yl)-N-pyrazin-2-yl-propionamide] | 0.63 µM | 
CC(C)CC(C(=O)Nc1ccn(C)n1)N1C(=O)C(=O)c2cc(OC(F)(F)F)ccc21 (centres unmarked) [Example 39, 2-(2,3-Dioxo-5-trifluoromethoxy-2,3-dihydro-indol-1-yl)-4-methyl-pentanoic acid (1-methyl-1H-pyrazol-3-yl)-amide] | 21.28 µM | 
CC(C)CC(C(=O)Nc1nccs1)N1C(=O)Cc2cc(OC(F)(F)F)ccc21 (centres unmarked) [Example 41, 4-Methyl-2-(2-oxo-5-trifluoromethoxy-2,3-dihydro-indol-1-yl)-pentanoic acid thiazol-2-ylamide] | 2.81 µM | 
COc1ccc2c(c1)C(=O)C(=O)N2C(CC1CCCC1)C(=O)Nc1cnccn1 (centres unmarked) [Example 45, 3-Cyclopentyl-2-(5-methoxy-2,3-dioxo-2,3-dihydro-indol-1-yl)-N-pyrazin-2-yl-propionamide] | 12.29 µM | 
COc1ccc2c(c1)C(=O)C(=O)N2C(CC1CCCC1)C(=O)Nc1ccccn1 (centres unmarked) [Example 46, 3-Cyclopentyl-2-(5-methoxy-2,3-dioxo-2,3-dihydro-indol-1-yl)-N-pyridin-2-yl-propionamide] | 2.32 µM | 
COc1ccc2c(c1)C(=O)C(=O)N2C(CC1CCCC1)C(=O)Nc1ccn(C)n1 (centres unmarked) [Example 47, 3-Cyclopentyl-2-(5-methoxy-2,3-dioxo-2,3-dihydro-indol-1-yl)-N-(1-methyl-1H-pyrazol-3-yl)-propionamide] | 23.88 µM | 
COc1ccc2c(c1)CC(=O)N2C(CC1CCCC1)C(=O)Nc1ccn(C)n1 (centres unmarked) [Example 50, 3-Cyclopentyl-2-(5-methoxy-2-oxo-2,3-dihydro-indol-1-yl)-N-(1-methyl-1H-pyrazol-3-yl)-propionamide] | 8.39 µM | 
COc1ccc2c(c1)CC(=O)N2C(CC1CCCC1)C(=O)Nc1nccs1 (centres unmarked) [Example 51, 3-Cyclopentyl-2-(5-methoxy-2-oxo-2,3-dihydro-indol-1-yl)-N-thiazol-2-yl-propionamide] | 3.6 µM | 
COc1ccc2c(c1)CC(=O)N2C(CC1CCCC1)C(=O)Nc1cnccn1 (centres unmarked) [Example 52, 3-Cyclopentyl-2-(5-methoxy-2-oxo-2,3-dihydro-indol-1-yl)-N-pyrazin-2-yl-propionamide] | 4.76 µM | 
COc1ccc2c(c1)C(=O)C(=O)N2C(CC(C)C)C(=O)Nc1cnccn1 (centres unmarked) [Example 53, 2-(5-Methoxy-2,3-dioxo-2,3-dihydro-indol-1-yl)-4-methyl-pentanoic acid pyrazin-2-ylamide] |  | 1.16
COc1ccc2c(c1)C(=O)C(=O)N2C(CC(C)C)C(=O)Nc1ccccn1 (centres unmarked) [Example 54, 2-(5-Methoxy-2,3-dioxo-2,3-dihydro-indol-1-yl)-4-methyl-pentanoic acid pyridin-2-ylamide] |  | 1.49
COc1ccc2c(c1)C(=O)C(=O)N2C(CC(C)C)C(=O)Nc1nccs1 (centres unmarked) [Example 55, 2-(5-Methoxy-2,3-dioxo-2,3-dihydro-indol-1-yl)-4-methyl-pentanoic acid thiazol-2-ylamide] |  | 1.39
